Data on 72 substances can be found in patent US20240218019A1, “METHODS AND COMPOSITIONS COMPRISING MHC CLASS I PEPTIDES” (BOARD OF REGENTS, THE UNIVERSITY OF TEXAS SYSTEM, priority 2021, published 2024).

This assay relates to healthy donor PBMCs. Description: IFNγ ELISpot assay with peptide-stimulated healthy donor PBMCs. As to conditions: for ELISpot result (positive response) for peptides tested with ELISpot: healthy donor PBMCs. The class given is cell-based, human. How it is done: FIG. 10A-D. In vitro validation of predicted neoAgs immunogenicity using ELISpot IFNy assay. A) Schematic of peptide pool, stimulation, and cell culture workflow for ELISpot assays. PBMCs were exposed with the individual peptides from the immunogenic pools in the presence of IL-7 for 3 d, followed by expansion of neoAg-specific T cells in the presence of IL-2. On day 13, expanded cells (10^5 cells per well) were plated onto 96-well ELISpot plate coated with an IFNγ antibody and re-stimulated with the respective peptide for 24 h. IFNy secreting cells were analyzed as spot-forming units (SFUs), and the inventors chose ≥15 SFU produced by peptide stimulated cells over DMSO control cells as an indicator of the peptide immunogenicity. B) Quantification of IFNγ-secreting cells (SFU) obtained from ELISpot assay of 12 neoAg-stimulated PBMCs. ConcA and DMSO served as positive and negative controls. […] C) Selection of 110 predicted MHC-I neoAgs from 3 different categories and percentage of immunogenicity in vitro validation. […] “Most Immunogenic” refers to neoAgs selected from the top 100 prediction list of Most Immunogenic MHC-I neoAgs. “Most recurrent” refers to neoAgs selected from the top 100 prediction list of Most Recurrent MHC-I neoAgs. “Others” refers neoAgs that were predicted to have low immunogenicity and no recurrency. A total of 44 MHC-II neoAgs from 2 different categories were tested. […] “Most Immunogenic” refers to neoAgs selected from the top 100 prediction list of Most Immunogenic MHC-II neoAgs. “Most recurrent” refers to neoAgs selected from the top 100 prediction list of Most Recurrent MHC-II neoAgs. D) pMHC-pentamer staining. Expanded Pan-T cells from the healthy human donor were isolated and stained with WDTC1 neoAg peptide/A*02:01 Pentameric complexes and PerCP-conjugated CD8 antibody followed by flow cytometry analysis. Pan T-cells from healthy human donor PBMC (HLA-A*02:01) were isolated using negative magnetic selection. Isolated Pan T cells were stimulated and expanded with Opto-antigen presenting beads conjugated with WDTC1 neoAg-peptide. Viable Pan-T cells were gated based on FSC and SSC scatter and SYTOX Blue dead cells staining after doublet-exclusion. Flow cytometric plots representing CD8 positive (x-axis) and PE-biotin-pMHC-pentamer positive (y-axis) cells; unstained, unstimulated, and WDTC1 Opto-antigen presenting beads stimulated cells (left to right). The percentage of live CD8+ cells and CD8/WDTC1 neoAg-loaded MHC pentamer positive cells are shown.
FIG. 19A-B. In vitro validation of the pooled predicted neoAgs immunogenicity using ELISpot IFNγ assay. A) Schematic of peptide pool, stimulation, and cell culture workflow for ELISpot assays. All 154 peptides were grouped into 15 peptide pools to stimulate PBMCs from 3 healthy human donors as shown in the illustrations. IFNy secreting cells were analyzed as spot-forming units (SFUs), indicative of immunogenicity. B) Quantification of IFNγ-secreting cells (SFU) obtained from ELISpot assay. Pools 2, 3, 5, 6, 9, and 12 produced at least 15 or higher SFU/10^5 cells from two different PBMCs. […] ConcA and DMSO served as positive and negative controls.
Healthy donor PBMCs were stimulated with 15 peptide pools (Supplementary Table 13) to expand the neoAg-specific CD8^+ T-cells followed by quantitative ELISpot assays (FIG. 19A) to measure immunogenicity. […] To ascertain the immunogenicity of individual peptides within each immunogenic pool. a deconvolution protocol (see Methods) was implemented (FIG. 10A). […] Three percent of MHC-I neoAgs not predicted to be highly immunogenic or recurrent (Others). 5% of the top 100 most immunogenic MHC-II predicted neoags, and 6% of the top 100 most recurrent MHC-II predicted neoags elicited an immunogenic response as assessed by ELISpot assays. Additionally. 18% of all of these elispot-reactive neoags were also predicted from the validation set (FIG. 9C). […]

[1] abbreviates: IFNγ ELISpot, peptide-stimulated healthy donor PBMCs, peptides grouped in 15 pools.
Where [2] appears, read: IFNγ ELISpot, peptide-stimulated healthy donor PBMCs.
[3] abbreviates: IFNγ ELISpot, only peptides marked Tested.
The mark [4] stands for this setting: IFNγ secretion in healthy donor PBMCs vs unexposed control cells.
[5] abbreviates: IFNγ ELISpot, peptides marked Tested.

In the case of YLGTPTWNC, the Elispot reactive entry under setting [1] was “yes”.

Regarding RFCPASCSGCY [compound 170], the “ELISPOT result (positive Yes/No) for peptides marked Tested” value (“ELISPOT result (positive Yes/No)” below) under setting [2] is “No”.

In the case of TAPVASASPKL [compound 17], the Elispot reactive result (IFNγ ELISpot, peptide tested) is on record as “No”.

LSSWFSPTV [compound 139]: the “ELISPOT result (positive Yes/No)” value under setting [2] is reported as “No”.

Turning to ILFFFSSK [compound 175], the “ELISPOT result (positive Yes/No)” value under setting [2] was “No”.

On to APSLTPMHSL [compound 209], for which the Elispot reactive result (IFNγ ELISpot, peptide tested) is recorded as “No”.

Regarding KLSSVVPSV [compound 22], under setting [3], the Elispot reactive entry is listed as “No”.

For KANRYFSPNF [compound 62], under setting [2], the “ELISPOT result (positive Yes/No)” value is recorded as “Yes” and the “ELISPOT result for peptides marked Tested with ELISPOT (Yes/No)” value (from here on “ELISPOT result … (Yes/No)”) is “No”. The Elispot reactive entry under setting [4] is “Yes”.

Take VPTWSARLL [compound 203]: for the setting “IFNγ ELISpot, peptide tested”, the Elispot reactive result is “No”.

As for SPAIPPRPL [compound 7], for the setting “IFNγ ELISpot, peptide tested”, the Elispot reactive result is listed as “No”.

With SLWSSMPHGV [compound 23], the Elispot reactive result is, setting by setting: under setting [3], “Yes”; under setting [4], “Yes”.

Take TPRKLVGRAV [compound 162]: the “ELISPOT result (positive Yes/No)” value under setting [2] is on record as “No”.

Take FLATSGIDPV [compound 44]: the “ELISPOT result … (Yes/No)” value under setting [2] is reported as “Yes”. Also, the Elispot reactive result under setting [5] is “Yes” and the Elispot reactive entry under setting [4] is reported as “Yes”.

Turning to 321 (RFPLLMMWRTPMTTR) [compound 321], the Elispot reactive result under setting [5] is given as “No”.

As for SPSRSTTAPV [compound 134], the “ELISPOT result (positive Yes/No)” value under setting [2] is “No”.

322 (PVLFKADQSESSLSS) [compound 322]: the Elispot reactive result under setting [5] is “No”.

Turning to LSAPEKITLF [compound 20], the Elispot reactive result runs as follows: under setting [3], “Yes”; under setting [4], “Yes”. In addition, the “ELISPOT result (positive Yes/No)” value under setting [2] was “Yes”.

For SLINLTWTA, under setting [1], the Elispot reactive result is given as “yes”.

For the substance 507 (VVHKKRGL) [compound 507], the Elispot reactive result (IFNγ ELISpot, only peptides marked Elispot tested = Yes) is “No”.

As for TQLARFFPI, under setting [1], the Elispot reactive result is “yes”.

For the substance TPMHSLLISPM [compound 211], the Elispot reactive result (IFNγ ELISpot, peptide tested) was “No”.

As for APREGAAATPL [compound 18], under setting [3], the Elispot reactive entry is on record as “No”.

On to RPRMRAASPL [compound 13], for which the Elispot reactive entry (IFNγ ELISpot, peptide tested) was “No”.

On to NMIQVLMSV [compound 49], for which the “ELISPOT result … (Yes/No)” value under setting [2] is given as “No”.

Take SWMGGLHSFY [compound 121]: under setting [5], the Elispot reactive entry was “No”.

WLPKMPPFV: the Elispot reactive entry under setting [1] is “yes”.

As to HPPPPCLLLL [compound 217], the Elispot reactive result (IFNγ ELISpot, peptide tested) is reported as “No”.

Regarding VGMRETTGL [compound 119], the Elispot reactive result under setting [5] is “No”.

As for AGIGWGASY [compound 160], under setting [2], the “ELISPOT result (positive Yes/No)” value is given as “Yes”. Further, the Elispot reactive result under setting [4] is recorded as “Yes”.

Consider 231 (YLRFIKSLAERTMSV) [compound 231], for which the Elispot reactive result under setting [3] is “No”.

As for 320 (EDMQEVVVHKKRGLF) [compound 320], the Elispot reactive entry under setting [5] is “No”.

In the case of AGIGWGASY, under setting [1], the Elispot reactive result is on record as “yes”.

For the substance TQLARFFPI [compound 24], the “experimental validation of the neoAg, Yes/NA” value is on record as “Yes”. Further, the Elispot reactive result under setting [3] is given as “Yes”. For the same substance, the Elispot reactive entry under setting [5] was “Yes”. The Elispot reactive result under setting [4] is on record as “Yes”.

In the case of MPCFTTALLL [compound 155], the “ELISPOT result (positive Yes/No)” value under setting [2] is given as “No”.

As for KLFEKKYSV [compound 6], the Elispot reactive entry (IFNγ ELISpot, peptide tested) is “No”.

As for RLYVPLYSSK [compound 37], the Elispot reactive result is, setting by setting: under setting [3], “Yes”; under setting [4], “Yes”. Besides, the “ELISPOT result (positive Yes/No)” value under setting [2] is “Yes”.

Consider 319 (PCASLLSTLSQPPPQ) [compound 319], for which the Elispot reactive result under setting [5] was “No”.

In the case of 218 (RWMVLRNSWRAVARM) [compound 218], under setting [3], the Elispot reactive result is “No”.

290 (ANRYFSPNFKVKLYF) [compound 290]: the “ELISpot result (positive response) for peptides tested with ELISpot” value (IFNγ ELISpot) is on record as “No”.

Take RMASTSCAA [compound 161]: under setting [2], the “ELISPOT result (positive Yes/No)” value is given as “No”.

Turning to 227 (EDIEFHFSLGWTMLV) [compound 227], the Elispot reactive result under setting [3] is recorded as “No”.

Turning to 335 (KKSVLKAIEQADLLQ) [compound 335], the Elispot reactive result under setting [5] was “No”.

For the substance RPACTCISM [compound 97], the “ELISPOT result (positive Yes/No)” value under setting [2] is “No”. The “ELISPOT positive” value (only neoAgs marked Tested with ELISPOT) is “No”.

As for QTIEERLTW [compound 156], under setting [2], the “ELISPOT result (positive Yes/No)” value is recorded as “Yes”. Besides, the Elispot reactive entry under setting [4] was “Yes”.

Take RLDKGNFAGA: the Elispot reactive entry under setting [1] is “yes”.

Turning to KMMKILMIK [compound 19], under setting [3], the Elispot reactive entry is given as “No”.

Turning to VSNIAQAPLY [compound 172], the “ELISPOT result (positive Yes/No)” value under setting [2] was “No”.

On to RLDKGNFAGA [compound 215], for which the Elispot reactive result (IFNγ ELISpot, peptide tested) is recorded as “No”.

For QTIEERLTW, the Elispot reactive entry under setting [1] is given as “yes”.

With 328 (LLHWRIGGGTPLSIS) [compound 328], the Elispot reactive entry under setting [5] is “No”.

Consider RTHPYSPKK [compound 171], for which the “ELISPOT result (positive Yes/No)” value under setting [2] is “No”.

Regarding RRPLRSWTPR [compound 152], the “ELISPOT result (positive Yes/No)” value under setting [2] is reported as “No”.

As for RLYVPLYSSK, the Elispot reactive entry under setting [1] was “yes”.

On to TSSPRTMSW [compound 120], for which the Elispot reactive entry under setting [5] is “No”.

Consider 239 (LEVMLLNMGYRITGL) [compound 239], for which the Elispot reactive entry under setting [3] was “No” and the Elispot reactive result under setting [5] was “No”.

Turning to ATLVTPPTRY [compound 166], the “ELISPOT result (positive Yes/No)” value under setting [2] is listed as “No”.

As for AMAENILAA [compound 150], the “ELISPOT result (positive Yes/No)” value under setting [2] is given as “No”.

For TPMHSLLIS [compound 212], where the note is “IFNγ ELISpot, peptide tested”, the Elispot reactive entry is on record as “No”.

Regarding VLEDTLLKI, under setting [1], the Elispot reactive result is given as “yes”.

As for WSWCGTSQTY [compound 136], the “ELISPOT result (positive Yes/No)” value under setting [2] is recorded as “Yes”. The Elispot reactive result under setting [4] is reported as “Yes”.

Regarding RQMLPTLSTL [compound 214], under “IFNγ ELISpot, peptide tested”, the Elispot reactive entry was “No”.

For RLSCAPPPI [compound 138], under setting [2], the “ELISPOT result (positive Yes/No)” value is reported as “Yes”. Besides, under setting [4], the Elispot reactive result is “Yes”.

For the substance LTHPAHQPL [compound 124], under setting [5], the Elispot reactive result is reported as “No”.

In the case of MLLELSPAQL [compound 216], the Elispot reactive entry (IFNγ ELISpot, peptide tested) is “No”.

For 329 (EIQLTMNDSKHKLES) [compound 329], the Elispot reactive result under setting [5] is recorded as “No”.

For the substance VLEDTLLKI [compound 158], under setting [2], the “ELISPOT result (positive Yes/No)” value was “Yes”. Under setting [4], the Elispot reactive entry was “Yes”.

Take HTCKVCVSF [compound 176]: the “ELISPOT result (positive Yes/No)” value under setting [2] was “No”.

In the case of LKLCSKVSF [compound 132], the “ELISPOT result (positive Yes/No)” value under setting [2] is “No”.

Take RVPAHASTSL [compound 27]: the Elispot reactive entry is “Yes” under setting [3], “Yes” under setting [5] and “Yes” under setting [4].

VMANVLTLNL: under setting [1], the Elispot reactive entry is “yes”.

Turning to 223 (QKKLMLLRLNLRKMC) [compound 223], the “ELISpot result (positive response) for peptides tested with ELISpot” value (IFNγ ELISpot) is recorded as “No”. Also, the Elispot reactive result under setting [3] is on record as “No”.

In the case of RAWRRFPLL [compound 118], under setting [5], the Elispot reactive entry is listed as “No”.
